In US20070066566A1, “19,23,24,25,26,27-Hexanor-1alpha-hydroxyvitamin D3” (Wisconsin Alumni Research Foundation, priority 2005, published 2007):

Key:
[1] = biological target: T1, full-length recombinant rat vitamin D receptor (Rattus norvegicus, UniProt P13053); experiment: Vitamin D receptor binding, competition with [3H]-1,25-(OH)2-D3; conditions: FIG. 1
T1 construct: Full-length recombinant rat receptor was expressed in E. coli BL21(DE3) Codon Plus RIL cells; His tag (C); made in house; host or cells: E. coli BL21(DE3) Codon Plus RIL
T1 sequence (P13053 1-423): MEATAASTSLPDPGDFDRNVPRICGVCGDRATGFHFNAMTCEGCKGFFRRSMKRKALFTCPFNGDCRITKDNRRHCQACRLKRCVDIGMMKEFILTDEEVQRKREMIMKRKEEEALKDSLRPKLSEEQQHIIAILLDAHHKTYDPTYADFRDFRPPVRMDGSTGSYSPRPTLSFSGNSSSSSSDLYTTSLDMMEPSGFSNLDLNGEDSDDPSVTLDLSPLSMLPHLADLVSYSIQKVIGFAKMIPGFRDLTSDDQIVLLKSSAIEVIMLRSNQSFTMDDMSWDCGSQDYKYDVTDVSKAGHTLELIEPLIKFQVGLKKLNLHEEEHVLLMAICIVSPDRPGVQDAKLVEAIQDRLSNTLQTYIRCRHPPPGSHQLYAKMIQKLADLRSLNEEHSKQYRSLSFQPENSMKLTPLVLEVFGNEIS
Text: FIG. 1 is a graph comparing the relative activity of NP9 and 1,25(OH)2D3 to compete for binding with [^3H]-1,25-(OH)2-D3 to the full-length recombinant rat vitamin D receptor.
Full-length recombinant rat receptor was expressed in E. coli BL21(DE3) Codon Plus RIL cells and purified to homogeneity using two different column chromatography systems. The first system was a nickel affinity resin that utilizes the C-terminal histidine tag on this protein. The protein that eluted from this resin was further purified using ion exchange chromatography (S-Sepharose Fast Flow). Aliquots of the purified protein were quick frozen in liquid nitrogen and stored at −80° C. until use. For use in binding assays, the protein was diluted in TEDK50 (50 mM Tris, 1.5 mM EDTA, pH 7.4, 5 mM DTT, 150 mM KCl) with 0.1% Chaps detergent. […]
Unlabeled ligands were dissolved in ethanol and the concentrations were determined using UV spectrophotometry (1,25(OH)2D3: molar extinction coefficient=18,200 and λmax=265 nm). […]
Radiolabeled and unlabeled ligands were added to 100 mcl of the diluted protein at a final ethanol concentration of ≧10%, mixed and incubated overnight on ice to reach binding equilibrium. […] Total binding was determined from the tubes containing only radiolabeled ligand.

[2] = system: Sprague-Dawley rats; experiment: Bone calcium mobilization (serum calcium); type: in vivo, rat; conditions: four consecutive ip doses, FIG. 4B
Text: (§1) FIGS. 4A and 4B are graphs comparing intestinal calcium transport (4A) and bone calcium mobilization (4B) of NP9 and 1,25(OH)2D3.
(§2) Male, weanling Sprague-Dawley rats were placed on Diet 11 (Suda et al. J. Nutr. 100:1049, 1970) (0.47% Ca) diet+vitamins AEK for one week followed by Diet 11 (0.02% Ca)+AEK for 3 weeks. The rats were then switched to a diet containing 0.47% Ca for one week followed by two weeks on a diet containing 0.02% Ca. Dose administration began during the last week on 0.02% calcium diet. Four consecutive ip doses were given approximately 24 hours apart. Twenty-four hours after the last dose, blood was collected from the severed neck and the concentration of serum calcium was determined as a measure of bone calcium mobilization. The first 10 cm of the intestine was also collected for intestinal calcium transport analysis using the everted gut sac method. Antagonism was tested by administering a combination of 1,25(OH)2D3 and the compound to the animal simultaneously.

[3] = system: Human promyelocytic leukemia (HL60) cells; experiment: HL-60 differentiation (nitro blue tetrazolium reduction); type: cell-based; conditions: FIG. 2
Protocol: FIG. 2 is a graph comparing the percent HL-60 cell differentiation as a function of the concentration of NP9 with that of 1,25(OH)2D3.
The study drugs were dissolved in ethanol and the concentrations determined using UV spectrophotometry. Serial dilutions were prepared so that a range of drug concentrations was tested without changing the final concentration of ethanol (≦0.2%) present in the cell cultures.
Human promyelocytic leukemia (HL60) cells were grown in RPMI-1640 medium containing 10% fetal bovine serum. The cells were incubated at 37° C. in the presence of 5% CO2.
HL60 cells were plated at 1.2×10^5 cells/mL. Eighteen hours after plating, cells in duplicate were treated with drug. Four days later, the cells were harvested and a nitro blue tetrazolium reduction assay was performed (Collins et al., 1979; J. Exp. Med. 149:969-974). The percentage of differentiated cells was determined by counting a total of 200 cells and recording the number that contain intracellular black-blue formazan deposits. Verification of differentiation to monocytic cells was determined by measuring phagocytic activity.

[4] = system: 24-hydroxylase (24Ohase) gene promoter; experiment: In vitro transcription assay (luciferase reporter in ROS 17/2.8 cells); type: cell-based; conditions: 24Ohase promoter-luciferase, FIG. 3
Protocol: FIG. 3 is a graph comparing the in vitro transcription activity of NP9 with that of 1,25(OH)2D3.
Transcription activity was measured in ROS 17/2.8 (bone) cells that were stably transfected with a 24-hydroxylase (24Ohase) gene promoter upstream of a luciferase reporter gene (Arbour et al., 1998). Cells were given a range of doses. Sixteen hours after dosing the cells were harvested and luciferase activities were measured using a luminometer. RLU=relative luciferase units.
Antagonism was tested by adding a combination of 1,25(OH)2D3 and the compound in the same well keeping the final ethanol concentration the same.

[5] = system: Sprague-Dawley rats; experiment: Intestinal calcium transport (everted gut sac method); type: in vivo, rat; conditions: four consecutive ip doses, FIG. 4A
Text: as §1, §2

## CC(C)[C@H]1CC[C@H]2/C(=C/C=C3C[C@@H](O)C[C@H](O)C3)CCC[C@]12C [formula 1B, 19,23,24,25,26,27-Hexanor-1α-hydroxyvitamin D3]
[1]
  binding to the vitamin D receptor relative to 1,25-(OH)2D3: does not bind to the vitamin D receptor as strongly as the native hormone 1,25-(OH)2D3
[2]
  bone calcium mobilizing activity: no measurable bone calcium mobilizing activity
[3]
  activity in inducing differentiation of HL-60 cells compared to 1,25-(OH)2D3: less but still significant activity compared to 1,25-(OH)2D3
[4]
  activity in causing transcription compared to 1,25-(OH)2D3: does not show as much activity in causing transcription as 1,25-(OH)2D3
[5]
  intestinal calcium transport activity: no measurable
